Source: patent publication US5409926A, “AT-2 antagonist inhibition of vascular restenosis” (Merck & Co., Inc., priority 1993, dated 1995)
“Also recorded” adds a separate entry of the source.

Experiments:
Format in all cases: in vivo
[1] = system: restenosis in the rat model; test: Effects of Compound II (alone, + Compound I, + heparin) and heparin on restenosis in the rat model (balloon angioplasty); details: for Intimal Area / % Inhibition of restenosis (intimal area): 14 days after balloon angioplasty, Compounds 1 mg/kg/day i.v. with 48 h pretreatment; for Intimal Area: heparin 0.3 mg/kg bolus + 0.3 mg/kg/hr i.v. for 4 days; for % Inhibition of restenosis (intimal area): heparin 0.3 mg/kg/hr i.v. for 4 days, vs. control
Experimental: The effects of the angiotensin II (Site II) receptor antagonist Compound II on restenosis in the rat model
A vehicle treatment group was compared to rats treated with: i) the AII (AT2) receptor antagonist, Compound II; ii) Compound II plus the AII (AT1) receptor antagonist, Compound I; (iii) Compound II+heparin; and iv) heparin only. Combination treatment with Compound II and Compound I were administered for the 48 hour period prior to surgery as well as on the day of surgery at 1 mg/kg/day by bolus i.v. Compound II and Compound I treatment was continued at the time of angioplasty at 1 mg/kg/day by continuous i.v. delivery via Alzet minipumps for the duration of the experiments (14 days). Heparin was delivered as a 0.3 mg/kg i.v. bolus at the time of angioplasty followed by continous i.v. delivery at 0.3 mg/kg/hr by Alzet minipump. Heparin treatment was discontinued 4 days later. Fourteen days after balloon angioplasty, the rats were sacrificed and the extent of restenosis was determined by morphometric measurements of the newly-formed intima.

restenosis in the rat [2] = test: Effect of Compound I pretreatment and Compound I-Heparin combination therapy on restenosis in the rat; details: for Intima Area: average ± sem
Experimental: The effect of Compound I pretreatment and Compound I--Heparin Combination therapy on restenosis in the rat
Compound I was delivered as an i.v. bolus at the time of angioplasty (1.0 mg/kg) followed by continuous i.v. infusion (1.0 mg/kg/day). Some groups were pretreated with Compound I. Pretreatment (PreRx) was begun 48 hr (1 mg/kg/day, i.v. bolus) prior to angioplasty. In all cases, Compound I treatment was continued for 14 days post-angioplasty. Other groups received Compound I in conjunction with heparin (0.3 mg/kg i.v. bolus+0.3 mg/kg/hr continuous i.v.) begun at the time of angioplasty and discontinued either 2 or 4 days later. The Hep 4d and Hep 2d data from above is included.

restenosis in the rat [3] = test: Effect of Heparin on restenosis in the rat: time course; details: for I/M / Intima Area / Media Area: heparin 0.3 mg/kg/hr i.v.
Experimental: The effect of Heparin on restenosis in the rat: time course
Heparin (0.3 mg/kg/hr) was delivered by i.v. bolus (0.3 mg/kg) at the time of angioplasty followed by continuous i.v. delivery for 2, 4 or 14 days (0.3 mg/kg,hr). The animals were sacrificed on day 14.

[4] = system: rat carotid artery model of balloon angioplasty; test: Enalaprilat, Compound II, Compound I in rat carotid artery model of balloon angioplasty; details: 1 mg/kg/day continuous i.v.; for Intimal Area + sem / % Inhibition (intimal area): pretreatment (pt), 14 days; for % Inhibition (intimal area): vs. control; for inhibition of restenosis / neointima (in words): pretreatment
Experimental: AII Receptor Antagonist: The effect of enalaprilat, the AII (site 2) receptor antagonist, Compound II, and Compound II in combination with the AII (site 1) receptor antagonist, Compound I, were evaluated in the rat carotid artery model of balloon angioplasty. Rats were pretreated surgery and drag treatment was continued (1 mg/kg/day, continuous i.v.) by ALZET minipump for the duration of the experiments. Fourteen days after balloon angioplasty, the rats were sacrificed and the extent of restenosis was determined by morphometric measurements of the newly-formed intima.

restenosis in the rat [5] = test: Effect of Compound II or Compound I pretreatment on restenosis in the rat; details: 1 mg/kg/day i.v.; for Intimal Area / % Inhibition (intimal area): 48 h pretreatment, 14 days; for % Inhibition (intimal area): vs. control
Experimental: The Effect of Compound II on restenosis in the rat
Rats were pretreated with Compound II or Compound I for the 48 hour period prior to surgery as well as on the day of surgery (1 mg/kg/day, bolus i.v.). Drug treatment was continued at the time of angioplasty (1 mg/kg/day, continuous i.v.) for the duration of the experiments (14 days).

restenosis in the rat [6] = test: Effect of Compound I on restenosis in the rat: dose-response study; details: for I/M / Intima Area / Media Area: day 14
Experimental: The effect of Compound I on restenosis in the Rat: Dose-response study
Compound I was delivered as an i.v. bolus at the time of angioplasty (0.1-1.0 mg/kg) followed by continuous i.v. infusion (0.1-1.0 mg/kg/day) until sacrifice on day 14.

restenosis in the rat [7] = test: Effect of AII + Compound I on restenosis in the rat; details: for effect on formation of the neointima (in words): exogenous AII 14 ug/kg/hr i.v., with or without Compound I
Experimental: The effect of AII+Compound I on restenosis in the rat
AII was delivered by continuous i.v. infusion (14 ug/kg/hr) beginning at the time of angioplasty. Compound I was delivered as an i.v. bolus at the time of angioplasty (1.0 mg/kg) followed by continuous i.v. infusion (1.0 mg/kg/day). Rats were sacrificed on day 14.

[8] = no pretreatment, Hep 4d (0.3 mg/kg/hr i.v.)
[9] = PreRx (48 hr, 1 mg/kg/day), no heparin
[10] = no pretreatment, no heparin, Compound I 1.0 mg/kg/day i.v., 14 days
[11] = AII 14 ug/kg/hr i.v., Compound I 1.0 mg/kg bolus + 1.0 mg/kg/day i.v., day 14

heparin
Intimal Area [1]: 0.158 ± 0.016 mm^2
% Inhibition of restenosis (intimal area) [1]: 23%
I/M (restenosis in the rat [2]; Hep 2d alone): 1.14 ± 0.13
Media Area (restenosis in the rat [2]; Hep 2d alone): 0.130 ± 0.008 mm^2
Intima Area (restenosis in the rat [2]; Hep 2d alone): 0.144 ± 0.012 mm^2
I/M (restenosis in the rat [2]; [8]): 1.17 ± 0.10
Media Area (restenosis in the rat [2]; [8]): 0.136 ± 0.010 mm^2
Intima Area (restenosis in the rat [2]; [8]): 0.158 ± 0.016 mm^2
I/M (restenosis in the rat [3]; 2 days): 1.14 ± 0.13
Intima Area (restenosis in the rat [3]; 2 days): 0.144 ± 0.012 mm^2
Media Area (restenosis in the rat [3]; 2 days): 0.130 ± 0.008 mm^2
I/M (restenosis in the rat [3]; 4 days): 1.17 ± 0.10
Intima Area (restenosis in the rat [3]; 4 days): 0.158 ± 0.016 mm^2
Media Area (restenosis in the rat [3]; 4 days): 0.136 ± 0.010 mm^2
I/M (restenosis in the rat [3]; 14 days): 0.77 ± 0.05
Intima Area (restenosis in the rat [3]; 14 days): 0.098 ± 0.008 mm^2
Media Area (restenosis in the rat [3]; 14 days): 0.128 ± 0.004 mm^2
effect on formation of neointima (in words) (restenosis in the rat [3]; heparin alone, 2, 4 or 14 days): decreases the formation of neointima; also recorded: greatest degree of inhibition was observed when heparin was given for 14 days

C[C@H](N[C@@H](CCc1ccccc1)C(=O)O)C(=O)N1CCC[C@H]1C(=O)O [enalaprilat]
Intimal Area + sem [4]: 0.133 ± 0.016 mm^2
% Inhibition (intimal area) [4]: 35%
inhibition of restenosis / neointima (in words) [4]: inhibit restenosis in this model; also recorded: independently inhibit neointima in this model

CCc1nc2ccc(N(Cc3ccccc3)C(=O)c3cccs3)cc2c(=O)n1Cc1ccc(-c2ccccc2-c2nn[nH]n2)cc1 [Compound II]
Intimal Area [1]: 0.097 ± 0.027 mm^2
% Inhibition of restenosis (intimal area) [1]: 53%
effect upon neointimal formation (in words) ([1]; rat carotid model, administration alone): significant effect upon neointimal formation
inhibition of neointimal formation (in words) (restenosis in the rat [5]): may independently inhibit growth of the neointimal formation
Intimal Area (restenosis in the rat [5]): 0.097 ± 0.027 mm^2
% Inhibition (intimal area) (restenosis in the rat [5]): 53%
Intimal Area + sem [4]: 0.097 ± 0.027 mm^2
% Inhibition (intimal area) [4]: 53%
inhibition of restenosis / neointima (in words) [4]: inhibit restenosis in this model; also recorded: independently inhibit neointima in this model
inhibition of neointimal formation (in words) (restenosis in the rat [6]; 0.1-1.0 mg/kg/day i.v.): inhibits neointimal formation in a dose dependent manner

CCc1nc2c(C)cc(C)nc2n1Cc1ccc(-c2ccccc2-c2nnn[nH]2)cc1 [Compound I, 5,7-dimethyl-2-ethyl-3-[(2'-(1H-tetrazol-5-yl)[1,1']-biphenyl-4-yl]-methyl]-3H-imidazo[4,5-b]pyridine]
effect on formation of the neointima (in words) (restenosis in the rat [7]): inhibits this stimulation
I/M (restenosis in the rat [2]; [9]): 1.01 ± 0.07
Media Area (restenosis in the rat [2]; [9]): 0.124 ± 0.006 mm^2
Intima Area (restenosis in the rat [2]; [9]): 0.125 ± 0.010 mm^2
I/M (restenosis in the rat [2]; [10]): 1.19 ± 0.04
Media Area (restenosis in the rat [2]; [10]): 0.125 ± 0.006 mm^2
Intima Area (restenosis in the rat [2]; [10]): 0.149 ± 0.009 mm^2
reduction in the neointimal area (in words) (restenosis in the rat [2]; pretreatment for 2 days or co-administration of heparin): reduction in the neointimal area when compared with no pretreatment
inhibition of neointimal formation (in words) (restenosis in the rat [5]): may independently inhibit growth of the neointimal formation
Intimal Area (restenosis in the rat [5]): 0.121 ± 0.012 mm^2
% Inhibition (intimal area) (restenosis in the rat [5]): 41%
Intimal Area + sem [4]: 0.121 ± 0.012 mm^2
% Inhibition (intimal area) [4]: 41%
inhibition of restenosis / neointima (in words) [4]: independently inhibit neointima in this model
I/M (restenosis in the rat [6]; 0.1 mg/kg/day i.v.): 1.64 ± 0.09
Intima Area (restenosis in the rat [6]; 0.1 mg/kg/day i.v.): 0.212 ± 0.013 mm^2
Media Area (restenosis in the rat [6]; 0.1 mg/kg/day i.v.): 0.129 ± 0.003 mm^2
I/M (restenosis in the rat [6]; 0.3 mg/kg/day i.v.): 1.47 ± 0.19
Intima Area (restenosis in the rat [6]; 0.3 mg/kg/day i.v.): 0.148 ± 0.014 mm^2
Media Area (restenosis in the rat [6]; 0.3 mg/kg/day i.v.): 0.103 ± 0.009 mm^2
I/M (restenosis in the rat [6]; 1.0 mg/kg/day i.v.): 1.24 ± 0.04
Intima Area (restenosis in the rat [6]; 1.0 mg/kg/day i.v.): 0.149 ± 0.009 mm^2

Angiotensin II (DRVYIHPF; Angiotensin-2; UniProt P01019 25-32, looked up) [AII, powerful arterial vasoconstrictor]
I/M (restenosis in the rat [7]; [11]): 1.92 ± 0.19
Intima Area (restenosis in the rat [7]; [11]): 0.348 ± 0.047 mm^2
Media Area (restenosis in the rat [7]; [11]): 0.176 ± 0.008 mm^2
effect on formation of the neointima (in words) (restenosis in the rat [7]): stimulates the formation of the neointima by almost two fold
